The source of these data is patent US10519114B2, “Peptidomimetics and methods of using the same” (The Regents of the University of Michigan, priority 2016, dated 2019).

T1 sequence (P33535 whole entry): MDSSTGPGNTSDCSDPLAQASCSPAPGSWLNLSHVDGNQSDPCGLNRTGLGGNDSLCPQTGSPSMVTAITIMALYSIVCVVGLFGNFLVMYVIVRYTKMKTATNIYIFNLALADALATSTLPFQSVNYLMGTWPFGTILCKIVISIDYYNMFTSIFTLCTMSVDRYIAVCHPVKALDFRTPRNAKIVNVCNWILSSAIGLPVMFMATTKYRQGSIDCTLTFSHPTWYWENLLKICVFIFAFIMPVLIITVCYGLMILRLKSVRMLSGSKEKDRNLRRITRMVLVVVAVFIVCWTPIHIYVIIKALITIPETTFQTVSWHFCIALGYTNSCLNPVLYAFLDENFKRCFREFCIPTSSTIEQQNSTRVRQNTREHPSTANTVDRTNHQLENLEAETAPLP
T3 sequence (P33533 whole entry): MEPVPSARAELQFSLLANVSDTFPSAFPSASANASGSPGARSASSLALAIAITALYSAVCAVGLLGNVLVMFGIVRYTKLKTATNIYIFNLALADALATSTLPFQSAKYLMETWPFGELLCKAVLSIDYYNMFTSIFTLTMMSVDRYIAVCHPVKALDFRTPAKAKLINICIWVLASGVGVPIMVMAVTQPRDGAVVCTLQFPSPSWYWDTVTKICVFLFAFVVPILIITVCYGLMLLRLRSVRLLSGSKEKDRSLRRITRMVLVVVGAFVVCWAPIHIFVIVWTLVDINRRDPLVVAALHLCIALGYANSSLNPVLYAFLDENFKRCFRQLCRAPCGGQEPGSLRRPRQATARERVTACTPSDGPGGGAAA

The first experiment has as its target T1, rat μ (C6-MOR) opioid receptor (Rattus norvegicus, UniProt P33535).
T1 construct: expressed in transfected cells
Description: Stimulation of [35S]GTPγS binding, MOR. Type of experiment: biochemical. The conditions noted are these: [35S]GTPγS binding, C6-MOR membranes; mean ± standard error. The method in brief:
(§1)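 Membranes (10–20 μg protein) from C6 glioma cells expressing rat MOR or DOR, or CHO cells expressing human KOR, were incubated 1 h at room temperature with 0.1 nM [35S]GTPγS, 30 μM GDP and test peptides in Tris buffer pH 7.4. Bound label was filtered and counted; maximal stimulation, by nonlinear regression, was relative to 10 μM DAMGO (MOR), DPDPE (DOR) or U69,593 (KOR).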
In the case of `Cc1cc(O)cc(C)c1C[C@H](N)C(=O)N[C@@H]1CCSc2ccc(Cc3ccccc3)cc21` [Compound 1123], a half-maximal response (EC50) required 1.92 ± 0.54 nM.

On to `CC(=O)N1CC[C@@H](NC(=O)[C@@H](N)Cc2c(C)cc(O)cc2C)c2cc(Cc3ccccc3)cc(C)c21` [Compound 1055], for which the concentration giving a half-maximal response (EC50) (commonly the concentration giving half of the maximal effect) came out at 7.05 ± 2.32 nM.

For `CC(=O)N1CC[C@@H](NC(=O)[C@@H](N)Cc2c(C)cc(O)cc2C)c2cc(CC3Cc4ccccc4C3C)ccc21` (stereo partly drawn) [Compound 1125], the EC50 is 3.03 ± 2.32 nM.

Staying with this experiment, now noted: [35S]GTPγS maximal stimulation compared with 10 μM standard DAMGO.
Turning to `Cc1cc(O)cc(C)c1C[C@H](N)C(=O)N[C@@H]1CCSc2ccc(Cc3ccccc3)cc21` [Compound 1123], the Emax – broadly, the size of the effect at its maximum, as opposed to the concentration needed – stood at 79.9 ± 7.51%.

Regarding `CC(=O)N1CC[C@@H](NC(=O)[C@@H](N)Cc2c(C)cc(O)cc2C)c2cc(Cc3ccccc3)cc(C)c21` [Compound 1055], the Emax is 86 ± 3%.

The compound `CC(=O)N1CC[C@@H](NC(=O)[C@@H](N)Cc2c(C)cc(O)cc2C)c2cc(CC3Cc4ccccc4C3C)ccc21` (stereo partly drawn) [Compound 1125] showed an Emax of 69.5 ± 10.4%.

The target of another experiment is T2, human κ (CHO-KOR) opioid receptor (Homo sapiens, UniProt P41145).
T2 construct: expressed in transfected cells
T2 sequence (P41145 whole entry): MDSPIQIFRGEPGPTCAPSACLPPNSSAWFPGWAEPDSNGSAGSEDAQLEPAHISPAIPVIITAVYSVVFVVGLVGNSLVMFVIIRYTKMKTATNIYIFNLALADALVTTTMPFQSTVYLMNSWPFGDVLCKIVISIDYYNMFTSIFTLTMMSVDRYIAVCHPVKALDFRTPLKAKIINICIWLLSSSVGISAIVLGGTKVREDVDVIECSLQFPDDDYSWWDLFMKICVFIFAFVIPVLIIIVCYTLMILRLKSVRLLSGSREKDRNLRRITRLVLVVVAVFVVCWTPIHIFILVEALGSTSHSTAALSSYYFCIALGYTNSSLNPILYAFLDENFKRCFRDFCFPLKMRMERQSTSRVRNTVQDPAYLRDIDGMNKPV
The experiment in a line: Radioligand binding assay, [3H]diprenorphine displacement, KOR. The conditions noted are these: displacement of 0.2 nM [3H]diprenorphine, CHO-KOR membranes; mean ± standard error. The essentials:
(§2)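 Competitive displacement of 0.2 nM [3H]diprenorphine is measured on 20 μg membrane protein from C6-MOR, C6-DOR or CHO-KOR cells in 50 mM Tris-HCl, pH 7.4. Binding equilibrates for 1 h at room temperature; naloxone (10 μM) defines nonspecific binding.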
With `Cc1cc(O)cc(C)c1C[C@H](N)C(=O)N[C@@H]1CCSc2ccc(Cc3ccccc3)cc21` [Compound 1123], the affinity corresponds to a Ki of 48.4 ± 23.1 nM.

Take `CC(=O)N1CC[C@@H](NC(=O)[C@@H](N)Cc2c(C)cc(O)cc2C)c2cc(Cc3ccccc3)cc(C)c21` [Compound 1055]: the affinity, expressed as Ki, was 80 ± 20 nM.

For `CC(=O)N1CC[C@@H](NC(=O)[C@@H](N)Cc2c(C)cc(O)cc2C)c2cc(CC3Cc4ccccc4C3C)ccc21` (stereo partly drawn) [Compound 1125], the Ki (commonly a dissociation constant, usually derived from enzyme kinetics or from competition with a known ligand) came out at 2.53 ± 1.52 nM.

The next experiment addresses T3, rat δ (C6-DOR) opioid receptor (Rattus norvegicus, UniProt P33533).
T3 construct: expressed in transfected cells
The experiment in a line: Radioligand binding assay, [3H]diprenorphine displacement, DOR. The conditions noted are these: displacement of 0.2 nM [3H]diprenorphine, C6-DOR membranes; mean ± standard error. The method in brief:
as §2
Take `Cc1cc(O)cc(C)c1C[C@H](N)C(=O)N[C@@H]1CCSc2ccc(Cc3ccccc3)cc21` [Compound 1123]: the Ki worked out at 4.79 ± 1.11 nM.

`CC(=O)N1CC[C@@H](NC(=O)[C@@H](N)Cc2c(C)cc(O)cc2C)c2cc(Cc3ccccc3)cc(C)c21` [Compound 1055] registered a Ki of 1.88 ± 0.53 nM.

As for `CC(=O)N1CC[C@@H](NC(=O)[C@@H](N)Cc2c(C)cc(O)cc2C)c2cc(CC3Cc4ccccc4C3C)ccc21` (stereo partly drawn) [Compound 1125], the Ki worked out at 0.67 ± 0.08 nM.

The target in another experiment is T1, rat μ (C6-MOR) opioid receptor. The experiment in a line: Radioligand binding assay, [3H]diprenorphine displacement, MOR. As to conditions: displacement of 0.2 nM [3H]diprenorphine, C6-MOR membranes; mean ± standard error. The method in brief: as §2
`Cc1cc(O)cc(C)c1C[C@H](N)C(=O)N[C@@H]1CCSc2ccc(Cc3ccccc3)cc21` [Compound 1123]: the Ki is 0.15 ± 0.04 nM.

Compound `CC(=O)N1CC[C@@H](NC(=O)[C@@H](N)Cc2c(C)cc(O)cc2C)c2cc(Cc3ccccc3)cc(C)c21` [Compound 1055] had a Ki of 0.18 ± 0.04 nM.

With `CC(=O)N1CC[C@@H](NC(=O)[C@@H](N)Cc2c(C)cc(O)cc2C)c2cc(CC3Cc4ccccc4C3C)ccc21` (stereo partly drawn) [Compound 1125], the Ki turned out to be 0.28 ± 0.12 nM.

A further experiment deals with T2, human κ (CHO-KOR) opioid receptor. The experiment in a line: Stimulation of [35S]GTPγS binding, KOR. Type of experiment: biochemical. The conditions noted are these: [35S]GTPγS binding, CHO-KOR membranes; mean ± standard error. Here is the method: In Vitro Pharmacology-Cell Lines and Membrane Preparations. All tissue culture reagents were purchased from Gibco Life Sciences (Grand Island, N.Y., U.S.). C6-rat glioma cells stably transfected with a rat μ (C6-MOR) or rat δ (C6-DOR) opioid receptor20 and Chinese hamster ovary (CHO) cells stably expressing a human K (CHO-KOR) opioid receptor21 were used for all in vitro assays. Cells were grown to confluence at 37° C. in 5% CO2 in Dulbecco's modified Eagle medium containing 10% fetal bovine serum and 5% penicillin/streptomycin. Membranes were prepared by washing confluent cells three times with ice cold phosphate buffered saline (0.9% NaCl, 0.61 mM Na2HPO4, 0.38 mM KH2PO4, pH 7.4). Cells were detached from the plates by incubation in warm harvesting buffer (20 mM HEPES, 150 mM NaCl, 0.68 mM EDTA, pH 7.4) and pelleted by centrifugation at 200 g for 3 min. The cell pellet was suspended in ice-cold 50 mM Tris-HCl buffer, pH 7.4, and homogenized with a Tissue Tearor (Biospec Products, Inc., Bartlesville, Okla., U.S.) for 20 s at setting 4. The homogenate was centrifuged at 20 000 g for 20 min at 4° C., and the pellet was rehomogenized in 50 mM Tris-HCl with a Tissue Tearor for 10 s at setting 2, followed by recentrifugation. The final pellet was resuspended in 50 mM Tris-HCl and frozen in aliquots at […]. Protein concentration was determined via Bradford assay using bovine serum albumin as the standard.
Stimulation of [^35S]GTPyS Binding. Agonist stimulation of [35S]guanosine 5′-O-[γ-thio]triphosphate ([^35S]GTPγS, 1250 Ci, 46.2 TBq/mmol) binding was measured as described previously Briefly, membranes (10-20 μg of protein/tube) were incubated 1 h at room temperature in GTPyS buffer (50 mM Tris-HCl, 100 mM NaCl, 5 mM MgCl2, pH 7.4) containing 0.1 nM [^35S]GTPγS, 30 μM guanosine diphosphate (GDP), and varying concentrations of test peptides. Peptide stimulation of [^35S]GTPyS was compared with 10 μM standard compounds [D-Ala^2,N-MePhe^4,Gly-ol]encephalin (DAMGO) at MOR, D-Pen^2,5-enkephalin (DPDPE) at DOR, or […] at KOR. The reaction was terminated by rapidly filtering through GF/C filters and washing 10 times with GTPyS buffer, and retained radioactivity was measured as described above. The results presented are the mean±standard error from at least three separate assays performed in duplicate; maximal stimulation was determined using nonlinear regression analysis with GraphPad Prism (GraphPad Software Inc., La Jolla, Calif.).
In general terms: GTPγS is a poorly hydrolysed GTP analogue; its binding reports G protein activation.
With `Cc1cc(O)cc(C)c1C[C@H](N)C(=O)N[C@@H]1CCSc2ccc(Cc3ccccc3)cc21` [Compound 1123], the EC50 stood at 337 ± 205 nM.

`CC(=O)N1CC[C@@H](NC(=O)[C@@H](N)Cc2c(C)cc(O)cc2C)c2cc(Cc3ccccc3)cc(C)c21` [Compound 1055] gave an EC50 of 930 ± 600 nM.

For the compound `CC(=O)N1CC[C@@H](NC(=O)[C@@H](N)Cc2c(C)cc(O)cc2C)c2cc(CC3Cc4ccccc4C3C)ccc21` (stereo partly drawn) [Compound 1125], the “EC50 (nm) KOR” value is reported as “dns”.

The experiment is the same for the next values; noted with them: [35S]GTPγS maximal stimulation compared with 10 μM standard U-69,593.
Consider `Cc1cc(O)cc(C)c1C[C@H](N)C(=O)N[C@@H]1CCSc2ccc(Cc3ccccc3)cc21` [Compound 1123], for which the Emax turned out to be 10.3 ± 5.17%.

For the compound `CC(=O)N1CC[C@@H](NC(=O)[C@@H](N)Cc2c(C)cc(O)cc2C)c2cc(Cc3ccccc3)cc(C)c21` [Compound 1055], the Emax was 32 ± 2%.

For `CC(=O)N1CC[C@@H](NC(=O)[C@@H](N)Cc2c(C)cc(O)cc2C)c2cc(CC3Cc4ccccc4C3C)ccc21` (stereo partly drawn) [Compound 1125], the “% stimulation KOR” value is reported as “dns”.

The target in a further experiment is T3, rat δ (C6-DOR) opioid receptor. The experiment in a line: Stimulation of [35S]GTPγS binding, DOR. Type of experiment: biochemical. The conditions noted are these: [35S]GTPγS binding, C6-DOR membranes; mean ± standard error. The essentials: as §1
As to `Cc1cc(O)cc(C)c1C[C@H](N)C(=O)N[C@@H]1CCSc2ccc(Cc3ccccc3)cc21` [Compound 1123], the “EC50 (nm) DOR” value is “dns”.

Take `CC(=O)N1CC[C@@H](NC(=O)[C@@H](N)Cc2c(C)cc(O)cc2C)c2cc(Cc3ccccc3)cc(C)c21` [Compound 1055]: it took 384 ± 296 nM to reach a half-maximal effect (EC50).

On to `CC(=O)N1CC[C@@H](NC(=O)[C@@H](N)Cc2c(C)cc(O)cc2C)c2cc(CC3Cc4ccccc4C3C)ccc21` (stereo partly drawn) [Compound 1125], for which the “EC50 (nm) DOR” value is on record as “dns”.

The same experiment, now with this note: [35S]GTPγS maximal stimulation compared with 10 μM standard DPDPE.
In the case of `Cc1cc(O)cc(C)c1C[C@H](N)C(=O)N[C@@H]1CCSc2ccc(Cc3ccccc3)cc21` [Compound 1123], the “% stimulation DOR” value is recorded as “dns”.

`CC(=O)N1CC[C@@H](NC(=O)[C@@H](N)Cc2c(C)cc(O)cc2C)c2cc(Cc3ccccc3)cc(C)c21` [Compound 1055] gave an Emax of 30 ± 3%.

Regarding `CC(=O)N1CC[C@@H](NC(=O)[C@@H](N)Cc2c(C)cc(O)cc2C)c2cc(CC3Cc4ccccc4C3C)ccc21` (stereo partly drawn) [Compound 1125], the “% stimulation DOR” value was “dns”.
